# Reference: publication PMC10863392
# Assay: Intramolecular Friedel-Crafts arylation (C(vinyl)-C(aryl) bond) of vinyl cation from vinyl tosylate; [Li]+[B(C6F5)4]- 10 mol%, LiH 5 equiv
# Details: 1,2-dichlorobenzene, 16.7 mM, 140.0 °C
smiles,measurement,setting,value
CC(C)=C1c2ccccc2CCN(S(=O)(=O)c2ccc(C)cc2)c2sc3c(c21)CCCC3 [SI-42 -> 19 (120 C)],"ring closure, isolated yield","from CC(C)=C(OS(=O)(=O)c1ccc(C)cc1)c1c(N(CCc2ccccc2)S(=O)(=O)c2ccc(C)cc2)sc2c1CCCC2, 8-membered ring, 20.0 h",85%
CC(C)=C1c2ccccc2CCSc2ccccc21 [SI-14 -> 8],"ring closure, isolated yield","from CC(C)=C(OS(=O)(=O)c1ccc(C)cc1)c1ccccc1SCCc1ccccc1, 8-membered ring",46%
CC(C)=C1c2ccccc2CCN(S(=O)(=O)c2ccc(C)cc2)c2ccccc21 [SI-16 -> 5],"ring closure, isolated yield","from CC(C)=C(OS(=O)(=O)c1ccc(C)cc1)c1ccccc1N(CCc1ccccc1)S(=O)(=O)c1ccc(C)cc1, 8-membered ring, 36.0 h",56%
"CC(C)=C1c2ccccc2CCN(S(=O)(=O)c2ccc(C)cc2)c2cc(C(F)(F)F)ccc21 [precursor of 17 (n.d., 160 C)]","ring closure, isolated yield","from CC(C)=C(OS(=O)(=O)c1ccc(C)cc1)c1ccc(C(F)(F)F)cc1N(CCc1ccccc1)S(=O)(=O)c1ccc(C)cc1, 8-membered ring",0%
CC(C)=C1c2ccccc2CCCOc2ccccc21 [SI-45 -> 10],"ring closure, isolated yield","from CC(C)=C(OS(=O)(=O)c1ccc(C)cc1)c1ccccc1CCCOc1ccccc1, 9-membered ring, 48.0 h",65%
Cc1ccc(S(=O)(=O)N2CCc3ccc(Br)cc3C(=C3CCCC3)c3ccccc32)cc1 [SI-36 -> 15],"ring closure, isolated yield","from Cc1ccc(S(=O)(=O)OC(=C2CCCC2)c2ccccc2N(CCc2ccc(Br)cc2)S(=O)(=O)c2ccc(C)cc2)cc1, 8-membered ring",79%
Cc1ccc(S(=O)(=O)N2CCc3c(Cl)cccc3C(=C3CCCCC3)c3ccccc32)cc1 [1 -> 2],"ring closure, isolated yield","from Cc1ccc(S(=O)(=O)OC(=C2CCCCC2)c2ccccc2N(CCc2ccccc2Cl)S(=O)(=O)c2ccc(C)cc2)cc1, 8-membered ring, 18.0 h",73%
CC(C)=C1c2ccccc2CCCN(S(=O)(=O)c2ccc(C)cc2)c2ccccc21 [SI-11 -> 6],"ring closure, isolated yield","from CC(C)=C(OS(=O)(=O)c1ccc(C)cc1)c1ccccc1N(CCCc1ccccc1)S(=O)(=O)c1ccc(C)cc1, 9-membered ring, 36.0 h",82%
CC(C)=C1c2cc(O[Si](C)(C)C(C)(C)C)ccc2CCN(S(=O)(=O)c2ccc(C)cc2)c2ccccc21 [SI-33 -> 13],"ring closure, isolated yield","from CC(C)=C(OS(=O)(=O)c1ccc(C)cc1)c1ccccc1N(CCc1ccc(O[Si](C)(C)C(C)(C)C)cc1)S(=O)(=O)c1ccc(C)cc1, 8-membered ring",79%
Cc1ccc(S(=O)(=O)N2CCc3sccc3C(=C3CCCCC3)c3ccccc32)cc1 [SI-38 -> 18],"ring closure, isolated yield","from Cc1ccc(S(=O)(=O)OC(=C2CCCCC2)c2ccccc2N(CCc2cccs2)S(=O)(=O)c2ccc(C)cc2)cc1, 8-membered ring, 20.0 h",73%
Cc1ccc(S(=O)(=O)N2CCCc3ccc(C(F)(F)F)cc3C(=C3CCCCC3)c3ccccc32)cc1 [precursor of 14 (n.d.)],"ring closure, isolated yield","from Cc1ccc(S(=O)(=O)OC(=C2CCCCC2)c2ccccc2N(CCCc2ccc(C(F)(F)F)cc2)S(=O)(=O)c2ccc(C)cc2)cc1, 9-membered ring",0%
CC(C)=C1c2ccccc2CCCc2ccccc21 [SI-20 -> 9],"ring closure, isolated yield","from CC(C)=C(OS(=O)(=O)c1ccc(C)cc1)c1ccccc1CCCc1ccccc1, 8-membered ring",81%
Cc1ccc(S(=O)(=O)N2CCc3ccc(N(C)C)cc3C(=C3CCCCC3)c3ccccc32)cc1 [SI-24 -> 11],"ring closure, isolated yield","from Cc1ccc(S(=O)(=O)OC(=C2CCCCC2)c2ccccc2N(CCc2ccc(N(C)C)cc2)S(=O)(=O)c2ccc(C)cc2)cc1, 8-membered ring",62%
CC1=C(c2ccccc2)c2ccccc2CCCC1 [precursor of 20 (n.d.)],"ring closure, isolated yield","from CC(CCCCc1ccccc1)=C(OS(=O)(=O)c1ccc(C)cc1)c1ccccc1, 8-membered ring",0%
COc1ccc(CC2Cc3cc(OC)ccc3C(=C(C)C)c3ccccc3S2)cc1 (stereo not drawn) [28 -> 29a (NMR yield)],"ring closure, isolated yield","from COc1ccc(CC(Cc2cccc(OC)c2)Sc2ccccc2C(OS(=O)(=O)c2ccc(C)cc2)=C(C)C)cc1, 8-membered ring",25%
Cc1ccc(S(=O)(=O)N2CCCCc3ccccc3C(=C3CCCCC3)c3ccccc32)cc1 [precursor of 7 (n.d.)],"ring closure, isolated yield","from Cc1ccc(S(=O)(=O)OC(=C2CCCCC2)c2ccccc2N(CCCCc2ccccc2)S(=O)(=O)c2ccc(C)cc2)cc1, 10-membered ring",0%
COc1ccc2c(c1)C(=C1CCCCC1)c1ccccc1N(S(=O)(=O)c1ccc(C)cc1)CC2 [SI-27 -> 12],"ring closure, isolated yield","from COc1ccc(CCN(c2ccccc2C(OS(=O)(=O)c2ccc(C)cc2)=C2CCCCC2)S(=O)(=O)c2ccc(C)cc2)cc1, 8-membered ring",76%
COc1ccc2c(c1)N(S(=O)(=O)c1ccc(C)cc1)CCc1ccccc1C2=C(C)C [SI-46 -> 16],"ring closure, isolated yield","from COc1ccc(C(OS(=O)(=O)c2ccc(C)cc2)=C(C)C)c(N(CCc2ccccc2)S(=O)(=O)c2ccc(C)cc2)c1, 8-membered ring, 24.0 h",78%
